15 compounds from article PMC10372009, “Molecular basis of GDF15 induction and suppression by drugs in cardiomyocytes and cancer cells toward precision medicine” (Scientific Reports, 2023) can be followed below.

Common to all, as to assay type: cell-based, human
The subject of assay [1] is GDF15. The assay is described as follows: Doxorubicin-induced GDF15 mRNA expression in hiPSC-CMs, successive treatment with BET inhibitors (qPCR). From the text: (§1) Host cells are known to contribute to elevated GDF15 levels in cachexia patients when exposed to drug toxicity. […] We plotted GDF15 fold-changes against the respective reported half maximal inhibitory concentrations (IC50) of each BET inhibitor for BRD2, BRD3 and BRD4, whenever available. GDF15 fold-change thereby meant the ratio of GDF15 expression induced by doxorubicin only and doxorubicin combined with BET inhibitor normalized to cell viability.
(§2) Cardiotoxic drug (SCREEN-WELL® Cardiotoxicity library, BML-2850, ENZO) library was prepared by serial dilution of 10 mM stocks in DMSO to 9 different concentrations ranging from 0.001 to 10 mM, which were further diluted into assay plates to final concentrations ranging from 0.001 to 10 µM. […] The final concentration of DMSO for hiPSC-CMs assay was 0.1%. To investigate the influence of BET inhibitor treatment on doxorubicin induced GDF15 mRNA expression, hiPSC-CMs were pre-treated with 20 nM or 200 nM doxorubicin for 48 h and kept in medium without compound for 24 h before 24 h treatment with either 100 nM BI 894999 or 500 nM OTX015. […] Cancer cell lines were treated with 10 nM, 35 nM or 100 nM of BI 894999 for 4 h or 24 h (Supplementary Table S3).
(§3) For GDF15 mRNA quantification, total RNA was isolated from the cells using an RNeasy kit (Qiagen, 74106) to synthesize cDNA using a Taqman Reverse Transcription kit (Applied Biosystems, N8080234). Quantitative real-time PCR analysis was performed using QuantiNova SYBR Green PCR Kit (Qiagen, 208052) on a CFX96 Real-Time System (Bio-Rad) under the following amplification conditions: 95 °C for 2 min followed by 40 cycles of 95 °C for 5 s and 60 °C for 10 s. The primer sequences are GDF15-F: 5′-[…]-3′, GDF15-R: 5′-[…]-3′, ACTB-F: 5′-[…]-3′ and ACTB-R: 5′-[…]-3′. PCR data were analyzed using a modified relative expression software tool (REST) and the expression level of GDF15 gene was normalized to that of β-actin.

Assay [2] has as its system GDF15. The assay is described as follows: GDF15 secretion (ELISA) by hiPSC-CMs upon cardiotoxic drug treatment. Conditions: 48 h; for fold increase of media concentration of GDF15: sublethal and highest (10 µM) concentrations, normalized by DMSO-only control; for GDF15 protein concentration: 1 µM drug.
From the text: As many anticancer drugs are cardiotoxic and GDF15 is a well-known biomarker for heart failure, we employed a human induced pluripotent stem cell-derived cardiomyocytes (hiPSC-CMs) model to investigate the effect of drug-induced cardiotoxicity on GDF15 expression in host tissues. To adequately replicate cardiotoxicity using this model, we selected drugs whose cardiotoxic effect in vivo is based on cytotoxicity to cardiomyocytes.
Figure 2 Effect of cardiotoxic drugs on hiPSC-CMs viability and GDF15 secretion and modes of action of applied drugs. (A) hiPSC-CMs viability after 48 h treatment with 20 cardiotoxic drugs. (B) Fold-change of GDF15 expression upon 48 h treatment with 20 cardiotoxic drugs and their reported modes of action. GDF15 expression upon treatment with 10 µM, sublethal drug concentrations and maximal GDF15 induction (from concentration series depicted in (C)). Mean fold-change of 4 biological replicates with a 95% confidence interval were normalized by DMSO-only control. (C) Drug-induced GDF15 expression for different drug concentrations. Fold-change of GDF15 protein concentration upon 48 h treatment with ten cardiotoxic drugs (marked with * in A and B).
as §2
as §3, with “β-actin. For secreted GDF15 protein quantification, cell culture medium was collected after drug treatment and stored at − 20 °C until ELISA was performed using Human GDF-15 ELISA Kit (Abcam, ab155432) according to the manufacturer’s instruction. Resulting GDF15 concentrations were normalized to non-treated control and respective relative cell viability.” for “β-actin.”

In assay [3] the test system is GDF15. The assay is described as follows: GDF15 gene expression of NCI-60 cancer cell lines treated with 15 anticancer drugs (public data, linear regression). Conditions: data ref 34; for induction of GDF15 on average: NCI-60 cancer cell lines; for ratio of responsive cell lines (GDF15 induction): all NCI-60 cell lines, responsive: slope > 0.02 and R-squared > 0.5 within 24 h. From the text: To get further insights into how chemotherapy influences GDF15 expression in cancer, we analyzed public gene expression data of NCI-60 cancer cell lines treated with 15 different anticancer drugs. We used linear regression to quantify the cell line’s drug-specific responsiveness regarding GDF15 induction and categorized the cell lines as “responsive” or “resistant”. Comparing the number of responsive cell lines per drug, we found the ratio of responsive cell lines ranged from 4% for sirolimus to 71% for sorafenib (Supplementary Figure S2). Drugs with DNA damaging properties tended to induce GDF15 more strongly than drugs with other modes of action.
Figure 3 NCI-60 cell line clustering. (A) Hierarchically clustered correlation matrix of GDF15 gene expression levels by NCI-60 cell lines upon 15 drug treatments. Pearson correlation coefficients were calculated evaluating linear regression slope of GDF15 expression within the first 24 h of drug treatment. Clustering of cell lines was performed using Weighted Pair Group Method with Arithmetic Mean (WPGMA) algorithm based on Pearson correlation coefficients. Four cell line clusters were identified. Tissue types of cell lines are color coded. (B) Drug-specific fraction of responsive NCI-60 cell lines in each identified cell line cluster for 15 anticancer drugs. Responsiveness was assumed when linear regression slope of GDF15 expression within 24 h of drug treatment was > 0.02 and R-squared > 0.5. (C) Predicted basally activated or inhibited pathways for the cell line cluster based on identified differences in gene expression.
We obtained basal gene expression values and mutational status of all cancer cell lines from our in-house cancer cell line database. Gene expression data of NCI-60 after compound treatment, basal protein expression, drug sensitivity data, gene dependency data, metabolite expression and compound specifications such as IC50 values and modes of action were collected from different studies and data bases, as described in the supplementary information.
Each NCI-60 cell line was assigned to an array containing 15 drug-specific linear regression slopes of GDF15 mean fold-change. We calculated the Pearson correlation coefficient for every cell line pair to build a 60 × 60 correlation matrix. For agglomerative hierarchical clustering, we applied a “Weighted Pair Group Method with Arithmetic Mean” (WPGMA) algorithm to the resulting correlation matrix. The identified clusters represent groups of cell lines that are closely positioned to each other in this 15-dimensional data set and therefore have more similarities regarding GDF15 expression upon treatment with the 15 drugs compared to cell lines of other clusters.
Supplementary Materials and Methods
Data collection of cancer cell line properties
Gene expression data of NCI-60 upon treatment with 15 anticancer compounds were collected from NCI-
60 Transcriptional Pharmacodynamics Workbench 11. […]

In assay [4] the test system is GDF15. Nature of the assay: Doxorubicin-induced GDF15 secretion in hiPSC-CMs, simultaneous treatment with BET inhibitors (ELISA). Conditions: simultaneous 100 nM doxorubicin and 0.1 to 1000 nM BET inhibitor, 48 h.
From the text: as §1, §2
as §3, with “β-actin. For secreted GDF15 protein quantification, cell culture medium was collected after drug treatment and stored at − 20 °C until ELISA was performed using Human GDF-15 ELISA Kit (Abcam, ab155432) according to the manufacturer’s instruction. Resulting GDF15 concentrations were normalized to non-treated control and respective relative cell viability.” for “β-actin.”
Supplementary Figure S6. (A) Fold-change of GDF15 secretion by hiPSC-CMs after simultaneous
treatment with doxorubicin and seven BET Inhibitors for 48 h. Normalized to cell viability and non-treated […]

As to `COc1cccc2c1C(=O)c1c(O)c3c(c(O)c1C2=O)C[C@@](O)(C(=O)CO)C[C@@H]3O[C@H]1C[C@H](N)[C@H](O)[C@H](C)O1` [Doxorubicin], in assay [1] (doxorubicin treatment (20 or 200 nM)), the “increase of GDF15 expression on RNA level” value is reported as “up to sevenfold”. Also, in assay [2], the “fold increase of media concentration of GDF15” value (“fold increase” below) was “more than threefold”. The “fraction of responsive cell lines in cluster C” value in assay [3] (NCI-60 cluster C) was 63.6%.
Turning to `CNC(=O)c1cc(Oc2ccc(NC(=O)Nc3ccc(Cl)c(C(F)(F)F)c3)cc2)ccn1` [sorafenib], in assay [3], the “induction of GDF15 on average” value is “threefold” and the “ratio of responsive cell lines (GDF15 induction)” value amounted to 71%. In addition, the “fraction of responsive cell lines in cluster A” value in assay [3] (NCI-60 cluster A) is on record as “all”.
As to `CC[C@@]1(O)C(=O)OCc2c1cc1n(c2=O)Cc2cc3ccccc3nc2-1` [Camptothecin], the “fold increase” value in assay [2] is listed as “more than threefold”.
For `Cc1sc2c(c1C)C(c1ccc(Cl)cc1)=N[C@@H](CC(N)=O)c1nnc(C)n1-2` [CPI203], the “effect on doxorubicin-induced GDF15 overexpression (secretion)” value (shortened to “effect … (secretion)”) in assay [4] is listed as “suppressed”.
`COc1cc([C@@H]2c3cc4c(cc3[C@@H](O[C@@H]3O[C@@H]5CO[C@@H](C)O[C@H]5[C@H](O)[C@H]3O)[C@H]3COC(=O)[C@H]23)OCO4)cc(OC)c1O` [Etoposide]: in assay [2], the “fold increase” value was “more than threefold”.
On to `COc1cc2c(cc1-c1c(C)noc1C)ncc1[nH]c(=O)n([C@H](C)c3ccccn3)c12` [I-BET151], for which, in assay [4], the “effect … (secretion)” value was “suppressed”.
In the case of `CC(=O)[C@]1(O)Cc2c(O)c3c(c(O)c2[C@@H](O[C@H]2C[C@H](N)[C@H](O)[C@H](C)O2)C1)C(=O)c1ccccc1C3=O` [Idarubicin], in assay [2], the GDF15 protein concentration result is recorded as “exceeded the upper limit of quantification” and the “fold increase” value was “more than threefold”.
As to `CCN(CC)CCNC(=O)c1c(C)[nH]c(/C=C2\C(=O)Nc3ccc(F)cc32)c1C` [Sunitinib], in assay [3], the “induction of GDF15 on average” value was “did not lead to notable GDF15 regulation”.
`COc1ccccc1S(=O)(=O)Nc1ccc2c(c1)CN(C)C(=O)N2` [PFI-1]: the “effect … (secretion)” value in assay [4] is listed as “suppressed”.
For `CO[C@H]1C[C@@H]2CC[C@@H](C)[C@@](O)(O2)C(=O)C(=O)N2CCCC[C@H]2C(=O)O[C@H]([C@H](C)C[C@@H]2CC[C@@H](O)[C@H](OC)C2)CC(=O)[C@H](C)/C=C(\C)[C@@H](O)[C@@H](OC)C(=O)[C@H](C)C[C@H](C)/C=C/C=C/C=C/1C` [sirolimus], the “ratio of responsive cell lines (GDF15 induction)” value in assay [3] was found to be 4%.
Consider `CC(C)C[C@H](NC(=O)[C@H](Cc1ccccc1)NC(=O)c1cnccn1)B(O)O` [Bortezomib], for which the “fraction of responsive cell lines in cluster B” value in assay [3] (NCI-60 cluster B) was “all”.
Take `Nc1ncn([C@@H]2O[C@H](CO)[C@@H](O)[C@H]2O)c(=O)n1` [azacytidine]: the “fraction of responsive cell lines in cluster D” value in assay [3] (NCI-60 cluster D) is reported as “all”.
For `COc1cccc2c1C(=O)c1c(O)c3c(c(O)c1C2=O)C[C@@](O)(C(C)=O)C[C@@H]3O[C@H]1C[C@H](N)[C@H](O)[C@H](C)O1` [Daunorubicin], the GDF15 protein concentration result in assay [2] was “exceeded the upper limit of quantification”.
On to `COc1cc(NS(C)(=O)=O)ccc1Nc1c2ccccc2nc2ccccc12` [Amsacrine], for which the “fold increase” value in assay [2] is “more than threefold”.
As to `Cc1sc2c(c1C)C(c1ccc(Cl)cc1)=N[C@@H](CC(=O)Nc1ccc(O)cc1)c1nnc(C)n1-2` [OTX015], the “effect … (secretion)” value in assay [4] is “suppressed”. Besides, in assay [1] (BET inhibitor given subsequently to doxorubicin), the “effect on doxorubicin-induced GDF15 overexpression (mRNA)” value is listed as “suppressed”.
